Results: ChEMBL document CHEMBL2074078, “Interaction of common azole antifungals with P glycoprotein” (Antimicrob Agents Chemother, 2002)

Biological target: ATP-dependent translocase ABCB1 (Homo sapiens, UniProt P08183)
Test: TP_TRANSPORTER: inhibition of Daunorubicin transport in G185 cells
Type: functional, cell-based
Conditions: mouse

Sequence of ATP-dependent translocase ABCB1 (P08183 whole entry): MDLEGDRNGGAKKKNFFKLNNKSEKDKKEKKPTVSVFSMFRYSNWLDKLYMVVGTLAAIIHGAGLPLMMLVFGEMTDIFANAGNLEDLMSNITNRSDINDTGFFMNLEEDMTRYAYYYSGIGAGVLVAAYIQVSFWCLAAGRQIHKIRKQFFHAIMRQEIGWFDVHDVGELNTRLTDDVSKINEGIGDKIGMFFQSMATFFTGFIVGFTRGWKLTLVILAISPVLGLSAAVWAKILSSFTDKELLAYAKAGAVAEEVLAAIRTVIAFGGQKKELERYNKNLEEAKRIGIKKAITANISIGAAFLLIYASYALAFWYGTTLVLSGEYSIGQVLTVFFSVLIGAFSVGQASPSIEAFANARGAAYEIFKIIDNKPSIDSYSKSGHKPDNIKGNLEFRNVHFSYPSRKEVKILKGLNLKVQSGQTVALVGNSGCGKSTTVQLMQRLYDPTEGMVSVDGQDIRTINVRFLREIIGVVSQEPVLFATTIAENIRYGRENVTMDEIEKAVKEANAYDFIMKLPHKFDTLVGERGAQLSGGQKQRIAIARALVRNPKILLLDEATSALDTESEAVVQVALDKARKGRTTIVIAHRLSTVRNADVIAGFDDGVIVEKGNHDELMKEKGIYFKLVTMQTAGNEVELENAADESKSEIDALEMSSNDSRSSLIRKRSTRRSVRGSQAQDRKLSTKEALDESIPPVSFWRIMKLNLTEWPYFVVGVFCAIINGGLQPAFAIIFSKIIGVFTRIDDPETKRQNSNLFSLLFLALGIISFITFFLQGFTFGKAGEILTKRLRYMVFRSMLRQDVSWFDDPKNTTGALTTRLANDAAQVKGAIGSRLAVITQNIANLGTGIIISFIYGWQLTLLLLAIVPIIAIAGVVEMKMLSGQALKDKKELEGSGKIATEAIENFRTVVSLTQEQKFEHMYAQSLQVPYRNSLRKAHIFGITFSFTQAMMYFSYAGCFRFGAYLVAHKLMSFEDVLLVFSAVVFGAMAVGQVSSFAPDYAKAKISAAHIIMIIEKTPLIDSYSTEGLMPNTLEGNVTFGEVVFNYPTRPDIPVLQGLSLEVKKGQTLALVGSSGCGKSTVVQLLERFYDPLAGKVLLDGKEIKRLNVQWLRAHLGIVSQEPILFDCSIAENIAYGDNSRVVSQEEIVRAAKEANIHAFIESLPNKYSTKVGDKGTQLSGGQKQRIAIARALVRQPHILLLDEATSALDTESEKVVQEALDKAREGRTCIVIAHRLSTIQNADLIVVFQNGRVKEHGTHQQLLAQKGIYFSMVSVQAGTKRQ

## OC(Cn1cncn1)(Cn1cncn1)c1ccc(F)cc1F [FLUCONAZOLE]
  Activity: is not an inhibitor [-]
